Where two headings read alike, the source gives them in different places.
What was measured:
[1] = test system: human oralepithelial carcinoma cell line (KB); experiment: In vitro cytotoxicity assay, cancer cell growth inhibition, KB cell
From the text: (§1) For evaluating the in vitro growth inhibitory concentrations ([…], μM) of the compound represented by Formula 1 of the present disclosure, human oralepithelial carcinoma cell line (KB), multidrug-resistant nasopharyngeal carcinoma cell line (KB-Vin), human lung adenocarcinoma cell line (A549), and prostate cancer cell line (DU145) were used in the following experiment. The GI50 values of Paclitaxel, an anticancer chemotherapy drug, were used as control.

[2] = test system: human lung adenocarcinoma cell line (A549); experiment: In vitro cytotoxicity assay, cancer cell growth inhibition, A549 cell
From the text: as §1

[3] = test system: prostate cancer cell line (DU145); experiment: In vitro cytotoxicity assay, cancer cell growth inhibition, DU145 cell
From the text: as §1

[4] = test system: multidrug-resistant nasopharyngeal carcinoma cell line (KB-Vin); experiment: In vitro cytotoxicity assay, cancer cell growth inhibition, KB-Vin cell
From the text: as §1

GSTO1 = target: T1, GSTO1 (Homo sapiens, UniProt P78417); experiment: Enzyme activity assay of GST omega 1 (GSTO1) with 4NPG substrate; assay type: biochemical; details: 2 nM GSTO1, 0.5 mM 4NPG, 30 min 25° C. pre-reaction, O.D.305
T1 sequence (P78417 1-241): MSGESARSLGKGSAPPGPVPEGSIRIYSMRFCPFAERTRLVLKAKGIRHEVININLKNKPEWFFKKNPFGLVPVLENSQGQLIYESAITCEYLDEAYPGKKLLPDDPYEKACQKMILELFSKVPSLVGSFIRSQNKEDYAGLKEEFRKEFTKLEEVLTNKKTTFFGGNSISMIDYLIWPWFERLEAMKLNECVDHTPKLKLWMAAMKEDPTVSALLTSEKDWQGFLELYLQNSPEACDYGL
Experimental: First, 100 μl mixture having 2 nM GSTO1, 100 mM Tris (pH 8.0), 1.5 mM EDTA, and 10 mM 2-mercaptoethanol were added into each well of an UV-penetrable 96-well culture plate. Besides, 100 μl buffer having 100 mM Tris (pH 8.0), 1.5 mM EDTA, and 10 mM 2-mercaptoethanol were used as blank control.
Then, 4NPG were added to each of the aforementioned mixture to a final concentration of 0.5 mM.

[5] = Homo sapiens, A549, read-out: In vitro cytotoxicity assay: GI50 (μM) A549 cell
[6] = Homo sapiens, DU-145, read-out: In vitro cytotoxicity assay: GI50 (μM) DU145 cell
[7] = read-out: In vitro cytotoxicity assay: GI50 (μM) A549 cell, A549 cell
[8] = read-out: In vitro cytotoxicity assay: GI50 (μM) DU145 cell, DU145 cell

SMILES	In vitro cytotoxicity assay: GI50 (μM) KB cell ([1]; KB cell) [µM]	In vitro cytotoxicity assay: GI50 (μM) KB-Vin cell ([4]; KB-Vin cell) [µM]	In vitro cytotoxicity assay: GI50 (μM) KB cell [1] [µM]	GI50 [2] [µM]	GI50 [3] [µM]	In vitro cytotoxicity assay: GI50 (μM) KB-Vin cell [4] [µM]	other results
CC(C)CCCC(C)CCOc1ccc2c(ccc3oc(C4(O)C=CC(=O)C=C4)cc(=O)c32)c1 (centres unmarked) [side chain No. 12]	0.067	0.335					GI50 [2, 5]: 0.233 µM; GI50 [3, 6]: 0.065 µM
CN(C)CCOc1ccc2c(ccc3oc(C4(O)C=CC(=O)C=C4)cc(=O)c32)c1 [side chain No. 14]	0.683	0.841					GI50 [2, 7]: 0.754 µM; GI50 [3, 8]: 0.808 µM
O=C1C=CC(O)(c2cc(=O)c3c(ccc4cc(OC(=O)N5CCOCC5)ccc43)o2)C=C1 [side chain No. 6]			0.607	0.603	0.617	0.64	
O=C1C=CC(O)(c2cc(=O)c3c(ccc4cc(O)ccc43)o2)C=C1 [side chain No. 19]	0.944	0.738					GI50 [2, 7]: 0.806 µM; GI50 [3, 8]: 0.709 µM
O=C1C=CC(O)(c2cc(=O)c3c(O)cc(O)cc3o2)C=C1 [compound A]							inhibitory effect against GSTO1 enzyme activity (competition with 4NPG, FIG. 1) (GSTO1): slight
O=C1C=CC(O)(c2cc(=O)c3c(ccc4cc(OCCN5CCCC5)ccc43)o2)C=C1 [side chain No. 18]			0.552	0.628	0.693	1.108	
COc1ccc2c(ccc3oc(C4(O)C=CC(=O)C=C4)cc(=O)c32)c1 [side chain No. 8]	0.871	0.692					GI50 [2, 7]: 0.811 µM; GI50 [3, 8]: 0.707 µM
COc1ccc2c(ccc3oc(C4(O)C=CC(=O)C=C4)cc(=O)c32)c1 [compound B]							inhibitory effect against GSTO1 enzyme activity (competition with 4NPG, FIG. 1) (GSTO1): slight
CC(C)CCOc1ccc2c(ccc3oc(C4(O)C=CC(=O)C=C4)cc(=O)c32)c1 [side chain No. 11]	0.2	0.269					GI50 [2, 5]: 0.382 µM; GI50 [3, 6]: 0.231 µM
CCC(C)CCCC(C)CCOc1ccc2c(ccc3oc(C4(O)C=CC(=O)C=C4)cc(=O)c32)c1 (centres unmarked) [side chain No. 13]			1.115	4.27	1.26	1.883	
COCOc1ccc2c(ccc3oc(C4(O)C=CC(=O)C=C4)cc(=O)c32)c1 [side chain No. 10]	0.786	0.766					GI50 [2, 7]: 0.819 µM; GI50 [3, 8]: 0.865 µM
O=C1C=CC(O)(c2cc(=O)c3c(ccc4ccccc43)o2)C=C1 [Compound main structure]	0.865	0.674					GI50 [2, 5]: 0.763 µM; GI50 [3, 6]: 0.799 µM
O=C1C=CC(O)(c2cc(=O)c3c(ccc4cc(OCCN5CCCCC5)ccc43)o2)C=C1 [side chain No. 17]			0.499	0.483	0.541	0.675	
CC(C)N(CCOc1ccc2c(ccc3oc(C4(O)C=CC(=O)C=C4)cc(=O)c32)c1)C(C)C [side chain No. 16]			0.55	0.584	0.62	0.682	
CC(=O)O[C@H]1C(=O)[C@@]2(C)[C@H]([C@H](OC(=O)c3ccccc3)[C@]3(O)C[C@H](OC(=O)[C@H](O)[C@@H](NC(=O)c4ccccc4)c4ccccc4)C(C)=C1C3(C)C)[C@]1(OC(C)=O)CO[C@@H]1C[C@@H]2O [Paclitaxel, reference compound]							GI50 KB cell (control) ([1]; KB cell): 4.64 nM; GI50 ([2]; Homo sapiens, A549, read-out: GI50 A549 cell (control)): 0.00356 µM; GI50 ([3]; Homo sapiens, DU-145, read-out: GI50 DU145 cell (control)): 0.003 µM; GI50 KB-Vin cell (control) ([4]; KB-Vin cell): >1000 nM
CCN(CC)CCOc1ccc2c(ccc3oc(C4(O)C=CC(=O)C=C4)cc(=O)c32)c1 [side chain No. 15]			0.644	0.551	0.685	1.325	
O=C1C=CC(O)(c2cc(=O)c3c(ccc4cc(OC(=O)N5CCCCC5)ccc43)o2)C=C1 [side chain No. 7]			0.615	0.536	0.522	0.619	

Reference: patent US8969406B2, “Use of compound for inhibiting glutathione s-transferase omega 1 activity and method for synthesizing the same” (China Medical University, priority 2013, dated 2015)
